The test system of one assay is rat HSCs. The assay can be described thus: Microarray of culture-induced activation of HSCs. The format is cell-based. Particulars: 3 days culture on plastic, 10 nM 1,25(OH)2D3. The method, then:
VDR Signaling Suppresses TGFβ-induced Pro-Fibrotic Genes. (A) Heat map comparing 519 differentially expressed genes in freshly isolated rat HSCs (quiescent HSCs, Q-HSCs), activated HSCs (A-HSCs, 3 days culture on plastic) and cells cultures in the presence of 10 nM 1,25(OH)2D3 (A-HSCs+1,25(OH)2D3). Euclidean clustering of both rows and columns using log2 transformed microarray expression data, n=2 per treatment group. […] Data represents the mean±SEM of at least three independent experiments performed in triplicate. Asterisks denote statistically significant differences (Student's unpaired t-test, *p<0.05, **p<0.01). HSCs were isolated from 10-week old male C57BL/6J mice and Wistar rats by in situ pronase, collagenase perfusion and single-step Histogenz gradient as previously reported (Hendriks et al., 1985; Knook et al., 1982). Isolated HSCs were cultured in DMEM (Mediatech) containing 20% FBS (Hyclone) on 6-well plates for 40 hours prior to end-point assays. Total RNA from primary rat or mouse HSCs was isolated using the RNeasy mini kit (Qiagen) according to standard protocols. RNA integrity and quality was assessed using the Agilent Bioanalyzer and prepared for hybridization to Illumina rat or mouse gene expression arrays according to standard Illumina protocols. Feature extraction was performed using the Illumina GenomeStudio software. […]

Assay [1] deals with SMAD3. Briefly: Immunoprecipitation/Western blot of total and phosphorylated SMAD3 in LX-2 cells. It counts as cell-based, human. The settings on record: TGFβ1 1 ng/ml +/- calcipotriol 100 nM. The method, then:
Nuclear extracts were immunoprecipitated using a SMAD2/3 antibody prior to Western blot analysis. Asterisks denote non-specific bands.
The whole cell lysates were obtained through RIPA buffer lysis while isolation of nuclear extract was performed as previously reported (Ding et al., 2008). Total and nuclear SMAD3 were immunoprecipitated from LX-2 whole cell and nuclear extracts, respectively, using anti-SMAD2/3 antibody (Santa Cruz, sc-133098) followed by SDS-PAGE and western blot detection by anti-SMAD3 (Cell Signaling, 9523) and anti-pSMAD3 (Cell Signaling, 9520) specific antibodies.

The test system of assay [2] is SMAD3. Briefly: ChIP-Seq signal intensity at VDR/SMAD3 co-occupied sites in LX-2 cells (SMAD3). The format is cell-based, human. Particulars: TGFβ1 1 ng/ml ± calcipotriol 100 nM, 4 hours. From the text: FIGS. 10A-10G. Genomic Antagonism between VDR and SMAD. […] The three co-occupied sites are designated as 1, 2 and 3. (D) and (F) ChIP-qPCR at COL1A1 regulatory region #1 co-bound by VDR and SMAD3 in LX-2 cells treated as above. (E) and (G) ChIP-qPCR at COL1A1 regulatory region #1 of control (siCNTL), VDR-specific (siVDR), or SMAD3-specific (siSMAD3) siRNA transfected LX-2 cells treated as above. Occupancy is expressed relative to input chromatin. Data represents the mean±SEM of at least three independent experiments performed in triplicate. Asterisks denote statistically significant differences (Student's t-test, *p<0.05, **p<0.01).
Cells were then harvested for ChIP assay. The experimental procedure for ChIP was as previously described (Barish et al., 2010). […]
The procedure was as previously described (Barish et al., 2010). Briefly, short DNA reads were aligned against the human hg18 reference genome (NCBI Build 36.1) using the Illumina Pipeline Suite v1.7. Reads were aligned using the Bowtie aligner allowing up to 2 mismatches in the read. […] The threshold for the number of tags that determine a valid peak was selected for a false discovery rate of <0.0001, as empirically determined by repeating the peak finding procedure using randomized tag positions. […]

The subject of assay [3] is CBP, p300 and acetylated histone H3. The assay can be described thus: ChIP-qPCR of CBP, p300 and acetylated histone H3 at COL1A1 regulatory region in LX-2 cells. The format is cell-based, human. The settings on record: co-treated with calcipotriol 100 nM and TGFβ1 1 ng/ml. The source says:
FIGS. 12A-12B. Coactivator/Corepressor Recruitment and Histone H3 Acetylation Status at Regulatory Regions of Fibrotic Genes Co-occupied by VDR and SMAD. […] The level of occupancy is expressed relative to input chromatin in LX-2 cells treated with corresponding conditions. Data represents the mean+/−SEM of at least three independent experiments performed in triplicate. Asterisks denote statistically significant differences (Student's t test, *p<0.05). […] The level of occupancy is expressed relative to input chromatin in LX-2 cells treated with corresponding conditions.
(§1) Cells were then harvested for ChIP assay. The experimental procedure for ChIP was as previously described (Barish et al., 2010). Briefly, after fixation, nuclei from LX-2 cells were isolated, lysed and sheared with a Diagenode Bioruptor to yield DNA fragment sizes of 200-1000 base pairs followed by immunoprecipitation using antibodies listed below: normal rabbit IgG (Santa Cruz, sc-2027), VDR (Santa Cruz, sc-1008), SMAD3 (Abcam, ab28379) and histone H3 (Abcam, ab1791). For ChIP-Re-ChIP, after first ChIP, the immunoprecipitated DNA-protein complex was eluted from beads using 10 mM DTT, diluted 100-fold then re-immunoprecipitated with a second antibody, re-ChIP.

The subject of assay [4] is SMAD3. Briefly: ChIP-qPCR time course of SMAD3 binding at COL1A1 regulatory region #1 in LX-2 cells. The format is cell-based, human.
Text: FIGS. 14A-14D. VDR/SMAD Genomic Circuit. […] Data represents the mean±SEM of at least three independent experiments performed in triplicate. Asterisks denote statistically significant differences compared to calcipotriol-induced VDR occupancy or TGFβ1-induced SMAD3 occupancy of corresponding time point (Student's unpaired t-test, *p<0.05, **p<0.01). […] Data represents the mean±SEM of at least three independent experiments performed in triplicate. (D) Model depicting proposed VDR/SMAD genomic circuit controlling pro-fibrogenic responses in HSCs.
as §1
Specifically, ChIP-qPCR was employed to monitor binding of VDR and SMAD3 to the cis-regulatory region of COL1A1 at multiple time points (0, 1, 2, 4, 6, 16 hours).

Regarding `C=C1/C(=C\C=C2/CCC[C@]3(C)C([C@H](C)CCCC(C)(C)O)CC[C@@H]23)C[C@@H](O)C[C@@H]1O` (stereo partly drawn) [1,25(OH)2D3, 1α,25 dihydroxyvitamin D3], the “culture-induced activation of HSCs (transcriptome)” value in the assay on rat HSCs is reported as “attenuated”.

With `C=C1/C(=C\C=C2/CCC[C@]3(C)[C@@H]([C@H](C)/C=C/[C@@H](O)C4CC4)CC[C@@H]23)C[C@@H](O)C[C@@H]1O` [calcipotriol, 1α,24-(OH)2-24-cyclopropyl-D3], the “TGFβ1-induced phosphorylation and subsequent nuclear translocation of SMAD3” value in the assay on SMAD3 [1] is reported as “did not significantly affect”. Besides, in the assay with SMAD3 [2], the “TGFβ-induced recruitment of SMAD3 globally compromised” value is reported as approximately 1.5 fold. For the same compound, the “TGFβ1 induced recruitment of p300 and CBP and histone H3 hyperacetylation at COL1A1 regulatory region” value in assay [3] was “lost”. Also, in the assay with SMAD3 [4] (after 4 hours, TGFβ1 + calcipotriol vs TGFβ1), the SMAD3 recruitment reduced was 70%. Besides, the “time of maximum binding of SMAD3 post-TGFβ1 treatment” value in the assay on SMAD3 [4] (in the presence of calcipotriol 100 nM, TGFβ1 alone maximal at 4 hours) was found to be 1 h.
